Tests used:
Conditions in all cases: 48 h
NOMO1 [1] = test: cell viability relative to DMSO control; higher = less cytotoxic
Method in brief: (§1)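 Viability values are per-plate percentages of DMSO wells, with background from cell-free wells. Library compounds in DMSO were pin-dosed, in an 11-point threefold series from 47 μM to 0.79 nM, onto NOMO1 or SEM (500 cells/well) or P12-Ichikawa (1000 cells/well) leukemia cells in 1536-well plates (5 μl). Those cells had been adapted for at least four passages in each medium, and CellTiter-Glo One luminescence was read after 48 h at 37°C.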

P12-Ichikawa [2] = test: as above
Method in brief: as §1

SEM cells [3] = test: as above
Method in brief: as §1

NOMO1 [4] = test: AUC of viability dose-response curve (% viability x log10 dose units); higher = less sensitive
Method in brief: (§2)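 Library compounds in DMSO were applied for 48 h at 37°C at 11 threefold doses (47 μM to 0.79 nM) to medium-adapted leukemia cells in 1536-well plates holding 500 or 1000 cells/well. Luminescence from CellTiter-Glo One was normalised plate by plate against DMSO and cell-free wells. Area under the curve came from trapezoidal integration of a log-logistic fit, after scaling curves that rose above full viability and discarding those that failed quality control. The fit had four parameters and used log10 doses.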

P12-Ichikawa [5] = test: as above
Method in brief: as §2

SEM cells [6] = test: as above
Method in brief: as §2

CC(C)(C)c1[nH]cnc1/C=c1\[nH]c(=O)/c(=C/c2ccccc2)[nH]c1=O
cell viability [%]
Conditions | NOMO1 [1] | P12-Ichikawa [2] | SEM cells [3]
HPLM + 10% dialyzed FBS, 0.000781 µM | 101 | 115 | 102
HPLM + 10% dialyzed FBS, 0.00234 µM | 76.7 | 80 | 69
HPLM + 10% dialyzed FBS, 0.00702 µM | 31 | 22.5 | 20
HPLM + 10% dialyzed FBS, 0.0211 µM | 46 | 18.4 | 23.9
HPLM + 10% dialyzed FBS, 0.0632 µM | 52.7 | 12 | 24.3
HPLM + 10% dialyzed FBS, 0.19 µM | 37.5 | 9.79 | 25.5
HPLM + 10% dialyzed FBS, 0.569 µM | 42.1 | 7.81 | 24.3
HPLM + 10% dialyzed FBS, 1.71 µM | 32.5 | 3.5 | 7.62
HPLM + 10% dialyzed FBS, 5.12 µM | 20.3 | 2.31 | 4.47
HPLM + 10% dialyzed FBS, 15.4 µM | 22.1 | 2.32 | 4.16
HPLM + 10% dialyzed FBS, 46.1 µM | 5.6 | 2.23 | 3.59
RPMI 5 mM glucose + 10% FBS, 0.000781 µM | 128 | 100 | 117
RPMI 5 mM glucose + 10% FBS, 0.00234 µM | 109 | 97 | 85.4
RPMI 5 mM glucose + 10% FBS, 0.00702 µM | 24.3 | 16.3 | 16.6
RPMI 5 mM glucose + 10% FBS, 0.0211 µM | 24.5 | 26.5 | 14
RPMI 5 mM glucose + 10% FBS, 0.0632 µM | 28.9 | 17.8 | 16.1
RPMI 5 mM glucose + 10% FBS, 0.19 µM | 23.9 | 8.22 | 17.9
RPMI 5 mM glucose + 10% FBS, 0.569 µM | 24.9 | 5.98 | 12.1
RPMI 5 mM glucose + 10% FBS, 1.71 µM | 17.4 | 3.28 | 4.12
RPMI 5 mM glucose + 10% FBS, 5.12 µM | 18.4 | 2.14 | 3.51
RPMI 5 mM glucose + 10% FBS, 15.4 µM | 14.6 | 1.52 | 2.93
RPMI 5 mM glucose + 10% FBS, 46.1 µM | 6.53 | 1.95 | 2.89
RPMI 5 mM glucose + 10% dialyzed FBS, 0.000781 µM | 103 | 103 | 106
RPMI 5 mM glucose + 10% dialyzed FBS, 0.00234 µM | 105 | 110 | 80
RPMI 5 mM glucose + 10% dialyzed FBS, 0.00702 µM | 24.9 | 32.7 | 17.5
RPMI 5 mM glucose + 10% dialyzed FBS, 0.0211 µM | 26.2 | 36.8 | 21.2
RPMI 5 mM glucose + 10% dialyzed FBS, 0.0632 µM | 29.5 | 25 | 23.4
RPMI 5 mM glucose + 10% dialyzed FBS, 0.19 µM | 27.8 | 15.7 | 21.4
RPMI 5 mM glucose + 10% dialyzed FBS, 0.569 µM | 30.6 | 14.2 | 19.5
RPMI 5 mM glucose + 10% dialyzed FBS, 1.71 µM | 20.8 | 4.42 | 4.68
RPMI 5 mM glucose + 10% dialyzed FBS, 5.12 µM | 23.2 | 4.87 | 3.49
RPMI 5 mM glucose + 10% dialyzed FBS, 15.4 µM | 16.5 | 2.24 | 3.56
RPMI 5 mM glucose + 10% dialyzed FBS, 46.1 µM | 3.92 | 2.04 | 3.02

NOMO1 [4]
Conditions | AUC of viability dose-response curve
HPLM + 10% dialyzed FBS | 200
RPMI 5 mM glucose + 10% FBS | 129
RPMI 5 mM glucose + 10% dialyzed FBS | 160

CCN1CCC(n2cc(CNc3cc(Cl)c4ncc(C#N)c(Nc5ccc(F)c(Cl)c5)c4c3)nn2)CC1
AUC of viability dose-response curve
Conditions | NOMO1 [4] | P12-Ichikawa [5] | SEM cells [6]
HPLM + 10% dialyzed FBS | 433 | 377 | 433
RPMI 5 mM glucose + 10% FBS | 445 | 432 | 367
RPMI 5 mM glucose + 10% dialyzed FBS | 447 | 426 | 400

CC(C)(C(=O)NCC(F)(F)C(F)(F)F)C(=O)N[C@@H]1C(=O)Nc2ccccc2-c2ccccc21
cell viability [%], SEM cells [3]
Conditions | HPLM + 10% dialyzed FBS | RPMI 5 mM glucose + 10% FBS
0.000781 µM | 99.6 | 96.8
0.00234 µM | 113 | 127
0.00702 µM | 120 | 120
0.0211 µM | 128 | 133
0.0632 µM | 127 | 122
0.19 µM | 119 | 128
0.569 µM | 119 | 130
1.71 µM | 123 | 108
5.12 µM | 126 | 124
15.4 µM | 129 | 72.7
46.1 µM | 3.02 | 3.52

AUC of viability dose-response curve
Conditions | HPLM + 10% dialyzed FBS | RPMI 5 mM glucose + 10% FBS | RPMI 5 mM glucose + 10% dialyzed FBS
NOMO1 [4] | 366 | 337 | 363
SEM cells [6] | 452 | 435 | 452

CC(=O)O[C@H]1C[C@@H]2CC[C@@H]3[C@H](CC[C@@]4(C)[C@H]3C[C@H]([N+]3(C)CCCCC3)[C@@H]4OC(C)=O)[C@@]2(C)C[C@@H]1N1CCCCC1
SEM cells [3], HPLM + 10% dialyzed FBS
Conditions | cell viability [%]
0.000781 µM | 124
0.00234 µM | 124
0.00702 µM | 138
0.0211 µM | 123
0.0632 µM | 146
0.19 µM | 144
0.569 µM | 120
1.71 µM | 137
5.12 µM | 132
15.4 µM | 125
46.1 µM | 110

AUC of viability dose-response curve
Conditions | NOMO1 [4] | P12-Ichikawa [5] | SEM cells [6]
HPLM + 10% dialyzed FBS | 454 | 464 | 470
RPMI 5 mM glucose + 10% FBS | 438 | 466 | 465
RPMI 5 mM glucose + 10% dialyzed FBS | 467 | 469 | 466

CN1CCN(c2ccc(C(=O)Nc3n[nH]c4ccc(Cc5cc(F)cc(F)c5)cc34)c(NC3CCOCC3)c2)CC1
AUC of viability dose-response curve
Conditions | HPLM + 10% dialyzed FBS | RPMI 5 mM glucose + 10% FBS | RPMI 5 mM glucose + 10% dialyzed FBS
P12-Ichikawa [5] | 440 | 440 | 404
SEM cells [6] | 341 | 352 | 354

OC(Cn1cncn1)(Cn1cncn1)c1ccc(F)cc1F
AUC of viability dose-response curve
Conditions | NOMO1 [4] | P12-Ichikawa [5] | SEM cells [6]
HPLM + 10% dialyzed FBS | 431 | 448 | 463
RPMI 5 mM glucose + 10% FBS | 449 | 448 | 451
RPMI 5 mM glucose + 10% dialyzed FBS | 449 | 462 | 467

CN(C)CCc1ccc(O)cc1
SEM cells [3], HPLM + 10% dialyzed FBS
Conditions | cell viability [%]
0.000781 µM | 114
0.00234 µM | 120
0.00702 µM | 134
0.0211 µM | 130
0.0632 µM | 137
0.19 µM | 135
0.569 µM | 116
1.71 µM | 140
5.12 µM | 113
15.4 µM | 135
46.1 µM | 110

AUC of viability dose-response curve
Conditions | NOMO1 [4] | P12-Ichikawa [5] | SEM cells [6]
HPLM + 10% dialyzed FBS | 454 | 448 | 471
RPMI 5 mM glucose + 10% FBS | 460 | 446 | 455
RPMI 5 mM glucose + 10% dialyzed FBS | 461 | 450 | 471
